US20250051729A1, “METHOD FOR PREPARING HIGHLY DIFFERENTIATED KIDNEY ORGANOIDS” (RGENORGANO BIOTECHNOLOGY CO., LTD., priority 2021, published 2025)
Entries after “also recorded” stand apart in the source; their conditions may differ.

Columns and labels:
[1] = system: human iPSC-derived kidney organoids; assay: Confocal imaging of PECAM1+ vasculature around NPHS1+ or WT1+ glomerular structure in kidney organoids; assay type: cell-based; details: Protocol B: VEGF (days 6, 9, 12, 14) and 10 μM Compound 1 (day 12) added together to Protocol A; FIG. 2A
Protocol: While Protocol B was largely similar to Protocol A, to enhance a vascular network, VEGF (10 ng/ml, 20 ng/ml, 30 ng/ml, and 50 ng/ml each) was treated on days 6, 9, 12, and 14, and to enhance podocyte differentiation, 10 μM Compound 1 was treated on day 12. For immunofluorescent analysis, organoids were fixed on day 18 unless otherwise noted. Specifically, for fixation, equal volumes of PBS (Thermo Fisher Scientific) and 8% paraformaldehyde (Electron Microscopy Sciences) were added to a medium for 15 minutes, and then the sample was washed with PBS three times. Subsequently, the fixed organoid culture was blocked with 5% donkey serum (Millipore)+0.3% Triton-X-100/PBS. Afterward, the blocked organoid culture was incubated in PBS containing 3% bovine serum albumin (Sigma)+ primary antibodies [anti-acetylated tubulin (Sigma-Aldrich T7451, 1:200), anti-collagen IV (Southern Biotech 1340-01, 1:300), anti-cytokeratin 8 (Abcam ab9023, 1:200), anti-GATA3 (R&D AF2605, 1:200), anti-Gb3 (TCI […], 1:200), anti-GLA (Thermo Fisher Scientific PA5-27349, 1:1000), anti-laminin (Sigma-Aldrich L9393. 1:200), anti-LTL (Vector Labs FL-1321, 1:200 dilution), […]32 (BD Pharmingen 555849, 1:200), anti-NPHS1 ([…] (Abcam ab9498, 1:200), anti-TUBA4A (Abcam ab24610, 1:200), and anti-WT1 (Abcam ab89901, 1:200)] overnight, washed, and then incubated with Alexa Fluor secondary antibodies (Invitrogen). […]

[2] = system: GLA mutant kidney organoids; assay: Immunofluorescent staining of Gb3 (Gb3 positive area) in GLA mutant kidney organoids; assay type: cell-based, human; details: GLA mutant kidney organoids (Protocol B) after treatment with agalsidase-α (ERT); FIGS. 4D and 4E
Protocol: For immunofluorescent analysis, organoids were fixed on day 18 unless otherwise noted. Specifically, for fixation, equal volumes of PBS (Thermo Fisher Scientific) and 8% paraformaldehyde (Electron Microscopy Sciences) were added to a medium for 15 minutes, and then the sample was washed with PBS three times. Subsequently, the fixed organoid culture was blocked with 5% donkey serum (Millipore)+0.3% Triton-X-100/PBS. Afterward, the blocked organoid culture was incubated in PBS containing 3% bovine serum albumin (Sigma)+ primary antibodies [anti-acetylated tubulin (Sigma-Aldrich T7451, 1:200), anti-collagen IV (Southern Biotech 1340-01, 1:300), anti-cytokeratin 8 (Abcam ab9023, 1:200), anti-GATA3 (R&D AF2605, 1:200), anti-Gb3 (TCI A2506, 1:200), anti-GLA (Thermo Fisher Scientific PA5-27349, 1:1000), anti-laminin (Sigma-Aldrich L9393. 1:200), anti-LTL (Vector Labs FL-1321, 1:200 dilution), antiMECA32 (BD Pharmingen 555849, 1:200), anti-NPHS1 (R&D AF4269, 1:200), anti-Pecaml (Abcam ab9498, 1:200), anti-TUBA4A (Abcam ab24610, 1:200), and anti-WT1 (Abcam ab89901, 1:200)] overnight, washed, and then incubated with Alexa Fluor secondary antibodies (Invitrogen). Afterward, the resulting organoids were washed and stained with DAPI, or mounted using Vectashield H-1000. Images were obtained using a Zeiss LSM 700 confocal microscope (Carl Zeiss, Germany) and ZEN 3.1 software. […]

[3] = system: GLA mutant kidney organoids; assay: Immunofluorescent staining of NPHS1, PECAM1 and LTL: vasculopathy phenotype in GLA mutant kidney organoids; assay type: cell-based, human; details: GLA mutant kidney organoids produced by Protocol B, ERT; FIG. 4F
Protocol: For immunofluorescent analysis, organoids were fixed on day 18 unless otherwise noted. Specifically, for fixation, equal volumes of PBS (Thermo Fisher Scientific) and 8% paraformaldehyde (Electron Microscopy Sciences) were added to a medium for 15 minutes, and then the sample was washed with PBS three times. Subsequently, the fixed organoid culture was blocked with 5% donkey serum (Millipore)+0.3% Triton-X-100/PBS. […]
Next, the phenotype of the vasculopathy in Fabry disease was determined using GLA mutant kidney organoids produced by Protocol B. Immunofluorescent staining analyses of NPHS1, PECAM1, and LTL were conducted on the wild type, GLA mutant kidney organoids, and human recombinant agalsidase-α-treated GLA mutant kidney organoids.

## NC(=O)c1ccc(-c2nc(-c3ccc4c(c3)OCO4)c(-c3ccccn3)[nH]2)cc1 [Compound 1, 4-[4-(1,3-benzodioxol-5-yl)-5-pyridin-2-yl-1H-imidazol-2-yl]benzamide, reference compound]
[1]
  vascularization surrounding the glomerular structure: significantly improved

## VEGF
[1]
  vascularization surrounding the glomerular structure: significantly improved

B1: agalsidase-α: recombinant human agalsidase-α used as recombinant enzyme replacement therapy (ERT) (protein, UniProt P06280 32-429, looked up)
Alpha-galactosidase A: LDNGLARTPTMGWLHWERFMCNLDCQEEPDSCISEKLFMEMAELMVSEGWKDAGYEYLCIDDCWMAPQRDSEGRLQADPQRFPHGIRQLANYVHSKGLKLGIYADVGNKTCAGFPGSFGYYDIDAQTFADWGVDLLKFDGCYCDSLENLADGYKHMSLALNRTGRSIVYSCEWPLYMWPFQKPNYTEIRQYCNHWRNFADIDDSWKSIKSILDWTSFNQERIVDVAGPGGWNDPDMLVIGNFGLSWNQQVTQMALWAIMAAPLFMSNDLRHISPQAKALLQDKDVIAINQDPLGKQGYQLRQGDNFEVWERPLSGLAWAVAMINRQEIGGPRSYTIAVASLGKGVACNPACFITQLLPVKRKLGFYEWTSRLRSHINPTGTVLLQLENTMQMSLKDLL
[2]
  Gb3 accumulation: decreased
[3]
  vascular network (glomerular angiogenesis and formation of large lumen vessels): restored the vascular network; also recorded: restored a vascular network
